Test results as given in US11324825B2, “Synthetic retinoids (in cell modulation)” (University of Durham, priority 2016, dated 2022).

Experiments:
[1] = tested on: HaCaT cells; assay: Cell death on Zeiss Live Cell Observer after UV light; format: cell-based
Experimental: (§1) One day prior to imaging, HaCaT or J2 cells (20,000 approx.) were seeded into each well of a 6 well or 24 well plastic plate. Cells were allowed to incubate overnight in serum containing media. One to four hours before imaging the normal media was replaced with compound containing media, 1 mL per well. The cells were imaged in a 37° C. heated chamber and supplied with 5% CO2. Zeiss Live Cell Observer microscope: OSRAM 1×HBO 103 W/2 100 Watt Mercury Bulb, DAPI Excitation filter=335-385 nm, DAPI Emission filter=420-470 nm. Note: Cells were imaged in DMEM media which contains phenol red.

[2] = tested on: HaCaT cells; assay: Cell death on Zeiss 880 confocal, 405 nm laser light; format: cell-based, human; details: 10 μM; for membrane blebbing on repeated exposures to 405 nm laser: up to 47 exposures
Experimental: One day prior to imaging, HaCaT cells (4000 approx.) were seeded into each well of an 8 well glass slide. Cells were allowed to incubate overnight in serum containing media. One hour before imaging the normal media was replaced with compound containing media, 1 mL per well. The cells were imaged in a 37° C. heated chamber using the Zeiss LSM 880 with Airyscan confocal laser scanning microscope. Note: Cells were imaged in DMEM media which contains phenol red.
Images of 10 μM compound treated cells were taken every twenty minutes and at each time point a treatment of 405 nm light at 50% laser strength was applied.

[3] = tested on: HaCaT cells; assay: ROS staining (Superoxide Detection Reagent, CellRox); format: cell-based, human; details: for superoxide stain fluorescence after UV exposure: UV treatment, rhodamine filter, 60-260 seconds after UV
Experimental: One day prior to imaging, HaCaT cells (20,000 approx) were seeded into each well of a 24 well plastic plate. Cells were allowed to incubate overnight in serum containing media. Three hours prior to imaging, the media in each well was replaced with fresh serum containing media which included a 1:500 dilution of Superoxide Detection Reagent, CellRox. […] The cells were incubated with the ROS stain at 37° C. for one hour. An hour and a half before imaging, the media in the negative control well was replaced with N-acetyl-L-cysteine diluted in serum containing media (1 mL, 10 mM). One hour before imaging the media in all but one of the other wells was replaced with compound containing media, 1 mL per well. Thirty minutes prior to imaging, the media in the positive control well was replaced with pyocyanine diluted in serum containing media (1 mL, 500 μM). Pyocyanine induces ROS within 20-30 minutes. The cells were imaged in a heated chamber and supplied with 5% CO2. The cells were imaged in a 37° C. heated chamber using the Zeiss LSM 880 with Airyscan confocal laser scanning microscope. Cells were irradiated with 405 nm laser to activate compounds and ROS dye was excited with 633 nm laser Note: Cells were imaged in DMEM media which contains phenol red.
In order to gain more insight into the mode of action leading to cell death, we examined the photo-initiated ROS production using the redox reactive dye, CellRox, which fluoresces in response to oxidation by reactive oxygen species.

[4] = tested on: J2 cells, a mouse fibroblast cell line; assay: Cell death on Zeiss Live Cell Observer after UV light, J2 cells; format: cell-based
Experimental: as §1
Referring to FIG. 6: Cell death observations were consistent across different cell lines. […] A 10× objective lens at Phase 0 was used.

[5] = tested on: HaCaT cells; assay: Dose response of cell death after 10 s UV (time lapse imaging); details: Homo sapiens, light or radiation study, 10 seconds of UV (DAPI filter, 20× objective), 24 hours after initial irradiation, read-out: EC50 based on average viable fraction of the cellular population
Experimental: The speed of death was tested at a number of concentrations in order to determine an estimate for the EC50 (half maximal effective concentration) value. Morphological changes were recorded using time lapse imaging at 5 minute intervals. The time taken between 10 s of UV light treatment and the first sign of damage to the cell membranes was recorded. Each cell in the field of view was treated as an individual data point, before taking an average of the time for each concentration.
Referring to FIG. 12: The dose-dependent response of HaCaT cells treated with DC324 and DC473 and 10 seconds of UV. UV exposure was administered through the DAPI filter and a 20× objective lens, phase 0.

[6] = Absorbance and emission spectra; format: physicochemical; details: in chloroform
Experimental: FIG. 18 illustrates the combined normalised absorbance spectra of DC324, DC473 and DC474 in CHCl3 (10 μM);
FIG. 19 illustrates the combined normalised emission spectra of DC324, DC473 and DC474 in CHCl3 (100 nM) with excitation at their respective maximal absorption wavelengths;

Structure (SMILES) | membrane blebbing and cell death following exposure to UV light (initial screening) ([1]; UV light) | membrane blebbing on repeated exposures to 405 nm laser ([2]; 405 nm laser at 50% strength) | superoxide stain fluorescence after UV exposure [3] | EC50 [5] | Absorbance wavelength max [6] | Absorbance wavelength range [6] | also measured
CC1=C(/C=C/C(C)=C/C=C/C(C)=C/C(=O)O)C(C)(C)CCC1 [ATRA, All Trans-Retinoic Acid, reference compound] | no membrane blebbing was observed | No membrane blebbing was observed | produced an increased level of fluorescence post exposure to UV | – | – | – | –
CC(C)N1CCC(C)(C)c2cc(C#Cc3ccc(/C=C/C(=O)O)cc3)ccc21 [DC324, (2E)-3-(4-2-[4,4-Dimethyl-1-(propan-2-yl)-1,2,3,4-tetrahydroquinolin-6-yl]ethynylphenyl)prop-2-enoic Acid] | induced membrane blebbing and cell death | Membrane blebbing was induced | indicates superoxide production | 200 nM | 400 max nm | 275-475 range nm | cells from the same well away from the site of UV exposure ([1]; 10 μM, no UV exposure): healthy cells; time to necrosis after UV treatment ([1]; 10 μM, single 10 s treatment with UV light, 10× objective lens, Phase 0): within two hours; speed of cell death induction compared with other compounds ([1]; UV light): most rapid inducer of cell death; UV untreated cells in the compound, same well as treated area ([4]; no UV): appear healthy after 26 hours; membrane blebbing after a single UV treatment ([4]; single UV treatment, 10× objective lens, Phase 0): displayed membrane blebbing within two hours; number of exposures until first bleb appeared ([2]; 405 nm laser at 50% strength): 21 exposures; type of cell death induced by 405 nm light ([2]; 405 nm laser at 50% strength): more characteristic of apoptosis than the cell death caused by UV light; cell death under 405 nm laser light versus DMSO control ([2]; 405 nm light at 50% laser strength every twenty minutes): significantly different to the DMSO control; CellRox (ROS-stimulated) relative fluorescence after irradiation ([3]; 405 nm light, before vs after irradiation): steady increase; Emission wavelength max ([6]; excitation at 400 nm): 560 max nm; Emission wavelength range ([6]; excitation at 400 nm): 450-700 range nm
C#CCN1CCC(C)(C)c2cc(C#Cc3ccc(/C=C/C(=O)OC)cc3)ccc21 [DC473] | induced membrane blebbing and cell death | – | – | 180 nM | 380 max nm | 275-450 range nm | Emission wavelength max ([6]; excitation at 380 nm): 520 max nm; Emission wavelength range ([6]; excitation at 380 nm): 440-680 range nm
C#CCN1CCC(C)(C)c2cc(C#Cc3ccc(/C=C/C(=O)O)cc3)ccc21 [DC474, (2E)-3-(4-{2-[4,4-Dimethyl-1-(prop-2-yn-1-yl)-1,2,3,4-tetrahydroquinolin-6-yl]ethynyl}phenyl)prop-2-enoic Acid] | – | – | – | – | 380 max nm | 275-450 range nm | Emission wavelength max ([6]; excitation at 300 nm): 540 max nm; Emission wavelength range ([6]; excitation at 300 nm): 450-700 range nm; melting point: 193 to 195 °C (dec.)
CC1(C)CCC(C)(C)c2cc(C#Cc3ccc(C(=O)O)cc3)ccc21 [EC23, reference compound] | no membrane blebbing was observed | – | – | – | – | – | –
